According to publication PMC12519282, “Reduction of Negative Charge in Mercaptoacetyl-Based Chelators Influences the Biodistribution of Prostate-Specific Membrane Antigen-Targeting Pseudopeptides Labeled with Technetium-99m” (ACS Pharmacology & Translational Science, 2025):
Like-named read-outs stand apart in the source and are kept apart here. Marks after values point to notes of the source that are not given here.

Legend:
PC3-pip xenografts [1] = assay: biodistribution and tumor targeting in PC3-pip tumor-bearing mice; assay type: in vivo; details: PC3-pip tumor-bearing mice, 5 nmol/mouse iv
Description: The injected masses for the in vivo experiments were chosen based on the findings for [^99mTc]-Tc-BQ0413: to study the general biodistribution of radiolabeled tracers in normal mice (NMRI), 40 pmol of tracer was used to avoid blocking of PSMA-mediated uptake in kidneys and salivary glands, to study tumor targeting, 5 nmol of tracer was used to decrease uptake in PSMA-expressing organs.
PSMA-expressing PCa xenografts were implanted in BALB/c nu/nu mice by subcutaneous injection of the PC3-pip cell suspension in PBS (10^7 cells/animal in 100 μL). The average animal weight in the experiment was 18 ± 2 g. The average tumor weight was 0.4 ± 0.2 g. For in vivo specificity control, 10^7 cells/animal PSMA-negative PC-3 cells were implanted. The average animal weight was 18 ± 1 g. The average tumor weight was 0.1 ± 0.1 g. Four mice per data point were used in the in vivo experiments.
For tumor-bearing mice, each mouse was intravenously injected with 5 nmol of [^99mTc]-Tc-BQ0413, [^99mTc]-Tc-BQ0500, and [^99mTc]-Tc-BQ0501 (60 kBq; the mass of the injected compound was adjusted with an unlabeled tracer). The mice were euthanized after lethal intraperitoneal injection of ketamine/xylazine, followed by exsanguination 1 and 3 h pi, similarly to the procedure described above.

PSMA [2] = molecular target: T1, PSMA (Homo sapiens, UniProt Q04609); details: cited from earlier work
T1 construct: expressed in transfected cells; host or cells: PC3-pip (PSMA-transfected PC-3 prostate carcinoma cells), from Prof; Martin G. Pomper, Johns Hopkins University
T1 sequence (Q04609 whole entry): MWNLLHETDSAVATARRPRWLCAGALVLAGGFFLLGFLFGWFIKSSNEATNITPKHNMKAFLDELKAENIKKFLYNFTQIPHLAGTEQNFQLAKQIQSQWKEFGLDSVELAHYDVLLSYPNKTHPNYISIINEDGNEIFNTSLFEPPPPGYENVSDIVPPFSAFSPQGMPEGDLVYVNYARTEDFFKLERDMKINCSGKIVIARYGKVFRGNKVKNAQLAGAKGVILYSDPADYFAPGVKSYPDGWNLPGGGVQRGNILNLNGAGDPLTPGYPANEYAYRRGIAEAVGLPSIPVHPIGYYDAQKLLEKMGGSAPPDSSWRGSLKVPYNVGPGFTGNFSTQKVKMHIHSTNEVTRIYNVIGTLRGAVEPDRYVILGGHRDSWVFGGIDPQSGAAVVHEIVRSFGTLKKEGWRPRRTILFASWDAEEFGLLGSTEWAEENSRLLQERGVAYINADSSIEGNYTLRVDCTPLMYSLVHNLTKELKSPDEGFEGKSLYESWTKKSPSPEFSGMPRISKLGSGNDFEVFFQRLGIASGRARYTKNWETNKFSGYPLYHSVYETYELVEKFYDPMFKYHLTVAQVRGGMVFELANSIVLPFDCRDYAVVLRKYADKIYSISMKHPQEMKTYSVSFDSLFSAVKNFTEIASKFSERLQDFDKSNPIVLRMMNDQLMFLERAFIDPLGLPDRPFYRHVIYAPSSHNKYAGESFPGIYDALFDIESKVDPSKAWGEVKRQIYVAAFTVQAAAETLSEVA

PSMA [3] = molecular target: T1, PSMA; assay: binding kinetics in real time on living PC3-pip cells (LigandTracer Yellow); details: 5 nM tracer, 1:2 model (1:1 for BQ0413)
Protocol: The binding kinetics of technetium-99m-labeled BQ0413, BQ0500, and BQ0501 were determined in PC3-pip cells in real-time using LigandTracer Yellow (Ridgeview Instruments AB, Uppsala, Sweden). The activity binding was recorded with 5 nM radiolabeled tracers for 150 min. After the binding kinetics were measured, the medium containing the labeled tracer was replaced with fresh medium, and the dissociation was monitored over 7 h. The association rate (k a) and the dissociation rate (k d) were computed using a 1:2 kinetic binding model in TraceDrawer software (Ridgeview Instruments AB, Uppsala, Sweden), and the equilibrium dissociation constant K D was calculated.

PC3-pip xenografts [4] = details: in vivo; cited from earlier work
physchem = assay type: physicochemical; details: pH 7.4
Protocol: To evaluate the label’s stability, 10 μL (0.25 μg) of radiolabeled conjugates was incubated with 300× molar excess of cysteine or with PBS for 1 h at room temperature. The test was run in triplicate. The release of free technetium-99m was controlled by using iTLC and radio-HPLC analysis. The stability in serum was analyzed by mixing the radioconjugates (0.25 μg in 10 μL) with murine serum or PBS (40 μL) as a control. The samples were incubated for 1 h at 37 °C and analyzed by iTLC. The experiment was performed in triplicate. The octanol–water distribution coefficient (Log D) was determined experimentally by the addition of 100 pmol of the radiolabeled tracer to an Eppendorf tube containing PBS (500 μL) and n-octanol (500 μL), pH ∼ 7.4. The solution was vortexed and centrifuged, and aliquots (50 μL) from each phase were collected and measured using a gamma counter. The experiment was performed in triplicate.

Compound: CC(=O)NC(CCCCNC(=O)CNC(=O)C(CCC(=O)O)NC(=O)C(CCC(=O)O)NC(=O)C(CCC(=O)O)NC(=O)CS)C(=O)NCCCCCCCC(=O)NC(Cc1ccc(O)cc1)C(=O)NC(Cc1ccc2ccccc2c1)C(=O)NCCCCC(NC(=O)NC(CCC(=O)O)C(=O)O)C(=O)O (stereo not shown) [[^99mTc]Tc-BQ0413, metal not drawn, reference compound]
- activity in carcass (PC3-pip xenografts [1]; 1 h pi): 8 ± 2 ^b %IA/sample
- activity in intestines with content (PC3-pip xenografts [1]; 1 h pi): 1.7 ± 0.4 %IA/sample
- activity uptake in blood (PC3-pip xenografts [1]; 1 h pi): 1.0 ± 0.3 ^b %IA/g
- activity uptake in bone (PC3-pip xenografts [1]; 1 h pi): 0.9 ± 0.3 ^b %IA/g
- activity uptake in kidney (PC3-pip xenografts [1]; 1 h pi): 23 ± 3 ^b %IA/g
- activity uptake in liver (PC3-pip xenografts [1]; 1 h pi): 1.3 ± 0.4 ^b %IA/g
- activity uptake in lung (PC3-pip xenografts [1]; 1 h pi): 1.2 ± 0.2 ^b %IA/g
- activity uptake in muscle (PC3-pip xenografts [1]; 1 h pi): 0.3 ± 0.1 ^b %IA/g
- activity uptake in pancreas (PC3-pip xenografts [1]; 1 h pi): 0.6 ± 0.1 ^b %IA/g
- activity uptake in salivary gland (PC3-pip xenografts [1]; 1 h pi): 1.4 ± 0.2 ^b %IA/g
- activity uptake in small intestines (PC3-pip xenografts [1]; 1 h pi): 0.5 ± 0.1^b %IA/g
- activity uptake in spleen (PC3-pip xenografts [1]; 1 h pi): 1.9 ± 0.8 %IA/g
- activity uptake in stomach (PC3-pip xenografts [1]; 1 h pi): 1.5 ± 0.4 %IA/g
- activity uptake in tumor (PC3-pip xenografts [1]; 1 h pi): 19 ± 4 %IA/g
- tumor-to-blood ratio (PC3-pip xenografts [1]; 1 h pi): 22 ± 12 ^b
- tumor-to-bone ratio (PC3-pip xenografts [1]; 1 h pi): 27 ± 17 ^b
- tumor-to-kidney ratio (PC3-pip xenografts [1]; 1 h pi): 0.9 ± 0.3 ^b
- tumor-to-liver ratio (PC3-pip xenografts [1]; 1 h pi): 17 ± 9 ^b
- tumor-to-lung ratio (PC3-pip xenografts [1]; 1 h pi): 16 ± 5 ^b
- tumor-to-muscle ratio (PC3-pip xenografts [1]; 1 h pi): 62 ± 25 ^b
- tumor-to-pancreas ratio (PC3-pip xenografts [1]; 1 h pi): 38 ± 5 ^b
- tumor-to-salivary gland ratio (PC3-pip xenografts [1]; 1 h pi): 14 ± 3 ^b
- tumor-to-small intestines ratio (PC3-pip xenografts [1]; 1 h pi): 41 ± 17 ^b
- tumor-to-spleen ratio (PC3-pip xenografts [1]; 1 h pi): 9 ± 3 ^b
- tumor-to-stomach ratio (PC3-pip xenografts [1]; 1 h pi): 13 ± 2 ^b
- activity in carcass (PC3-pip xenografts [1]; 3 h pi): 1.7 ± 0.3 %IA/sample
- activity in intestines with content (PC3-pip xenografts [1]; 3 h pi): 1.7 ± 0.2 %IA/sample
- activity uptake in blood (PC3-pip xenografts [1]; 3 h pi): 0.17 ± 0.04 %IA/g
- activity uptake in bone (PC3-pip xenografts [1]; 3 h pi): 0.2 ± 0.1 %IA/g
- activity uptake in kidney (PC3-pip xenografts [1]; 3 h pi): 9 ± 2 %IA/g
- activity uptake in liver (PC3-pip xenografts [1]; 3 h pi): 0.3 ± 0.1 %IA/g
- activity uptake in lung (PC3-pip xenografts [1]; 3 h pi): 0.3 ± 0.1 %IA/g
- activity uptake in muscle (PC3-pip xenografts [1]; 3 h pi): 0.06 ± 0.02 %IA/g
- activity uptake in pancreas (PC3-pip xenografts [1]; 3 h pi): 0.13 ± 0.02 %IA/g
- activity uptake in salivary gland (PC3-pip xenografts [1]; 3 h pi): 0.5 ± 0.1 %IA/g
- activity uptake in small intestines (PC3-pip xenografts [1]; 3 h pi): 0.2 ± 0.1 %IA/g
- activity uptake in spleen (PC3-pip xenografts [1]; 3 h pi): 0.9 ± 0.5 %IA/g
- activity uptake in stomach (PC3-pip xenografts [1]; 3 h pi): 0.6 ± 0.2 %IA/g
- activity uptake in tumor (PC3-pip xenografts [1]; 3 h pi): 17 ± 3 %IA/g
- tumor-to-blood ratio (PC3-pip xenografts [1]; 3 h pi): 94 ± 3
- tumor-to-bone ratio (PC3-pip xenografts [1]; 3 h pi): 114 ± 29
- tumor-to-kidney ratio (PC3-pip xenografts [1]; 3 h pi): 1.9 ± 0.3
- tumor-to-liver ratio (PC3-pip xenografts [1]; 3 h pi): 48 ± 5
- tumor-to-lung ratio (PC3-pip xenografts [1]; 3 h pi): 52 ± 8
- tumor-to-muscle ratio (PC3-pip xenografts [1]; 3 h pi): 284 ± 19
- tumor-to-pancreas ratio (PC3-pip xenografts [1]; 3 h pi): 135 ± 11
- tumor-to-salivary gland ratio (PC3-pip xenografts [1]; 3 h pi): 31 ± 3
- tumor-to-small intestines ratio (PC3-pip xenografts [1]; 3 h pi): 126 ± 57
- tumor-to-spleen ratio (PC3-pip xenografts [1]; 3 h pi): 16 ± 4
- tumor-to-stomach ratio (PC3-pip xenografts [1]; 3 h pi): 24 ± 2
- Kd (PSMA [2]; PC3-pip, ref 15 (inferred, reference cell empty)): 0.033 nM
- B max1 (binding maximum) (PSMA [3]): 947 CPS
- Kd (PSMA [3]; read-out: K D1): 0.089 nM
- excretion pathway (PC3-pip xenografts [4]): renal
- tumor uptake (PC3-pip xenografts [4]): 33 ± 3%IA/g (3 h)
- tumor-to-blood ratio (PC3-pip xenografts [4]): 314 ± 73 (3 h)
- Log D (octanol–water distribution coefficient) (physchem): −2.5 ± 0.1

Compound: O=C(O)CCc1ccc(O)c(CN(CCN(CC(=O)O)Cc2cc(CCC(=O)NCCCCCC(=O)NCCCC[C@H](NC(=O)N[C@@H](CCC(=O)O)C(=O)O)C(=O)O)ccc2O)CC(=O)O)c1 [PSMA-11]
- Kd (PSMA [2]; nonlabeled PSMA-11, ref 29 (inferred, citation mark not shown)): 0.5 ± 0.2 nM
